Measurements reported in paper PMC9706575 (Journal of Medicinal Chemistry, 2022).

What was measured:
[1] = mouse, in vivo, iv
targefrin = assay: ITC; reverse titration: 200 μM protein in the syringe, 20 injections of 2.5 μL into 10 μM compound in the cell; 25 mM Tris pH 7.5, 150 mM NaCl, 1% DMSO, 25 °C

Sequence of ephrin type-A receptor 2 ligand-binding domain (P29317 27-200): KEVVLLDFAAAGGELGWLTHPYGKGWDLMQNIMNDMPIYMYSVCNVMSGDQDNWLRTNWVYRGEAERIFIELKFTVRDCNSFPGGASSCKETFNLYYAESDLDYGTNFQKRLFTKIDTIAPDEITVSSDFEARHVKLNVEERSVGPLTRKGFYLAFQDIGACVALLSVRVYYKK

Kd (targefrin) | dH (targefrin) | Molecule | Body weight (g), Friday [1] | Body weight (g), Thursday [1] | Body weight (g), Wednesday [1]
 |  | CC(=O)O[C@H]1C(=O)[C@@]2(C)[C@H]([C@H](OC(=O)c3ccccc3)[C@]3(O)C[C@H](OC(=O)[C@H](O)[C@@H](NC(=O)c4ccccc4)c4ccccc4)C(C)=C1C3(C)C)[C@]1(OC(C)=O)CO[C@@H]1C[C@@H]2O [PTX, paclitaxel] | 22.11 g | 21.95 g | 21.85 g
21.7 nM | -20.2 kcal/mol | ephrin type-A receptor 2 ligand-binding domain (from UniProt P29317 27-200) (domain or fragment) |  |  | 
